# Test results: patent publication US6680327B2, “Crystalline form VII of cabergoline” (Pharmacia Italia SpA, priority 2000, dated 2004)
# What was measured:
# [1] = thermodynamic stability of cabergoline polymorphs; format: physicochemical
# Protocol: It can be readily prepared by slurry of form I or mixture of form I and VII in a solvent at a temperature over 30° C. The importance of cabergoline form VII rests primarily (but not exclusively) in thermodynamic stability.
# The present invention also provides a process for producing crystalline cabergoline Form VII by subjecting crystals of form I or a mixture of crystals form I and VII to a slurry procedure at a temperature over 30° C. Preferably, the process comprises suspending crystals of form I or a mixture of crystals form I and VII in an organic solvent, such as n-heptane, diethyl ether, or n-hexane, at a temperature of from +30° to +80° C., more preferably about 55° C. The resultant suspension is then stirred at this temperature for about from 24 to 120 hours, more preferably for about 48 hours.
# prolactine = experiment: inhibitory effect with regard prolactine; conditions: statement in words, no test described
structure (smiles),measurement,setting,value
"C=CCN1C[C@H](C(=O)N(CCCN(C)C)C(=O)NCC)C[C@@H]2c3cccc4[nH]cc(c34)C[C@H]21 [Form VII, 1((6-allylergolin-8beta-yl)-carbonyl)-1-(3-dimethylaminopropyl)-3-ethylurea]",stability with respect to form I,[1]; compared with form I,greater stability
same,thermodynamic stability of the polymorph,[1]; range of temperature between +30° and +80° C.,thermodynamically most stable polymorph
same,inhibitory effect with regard prolactine,prolactine,significant inhibitory effect
